Laboratory results from patent US20250352520A1, “USE OF DEXPRAMIPEXOLE FOR THE TREATMENT OF EOSINOPHILIC COPD” (Areteia Therapeutics, Inc., priority 2024, published 2025).

Procedure: Participants performed post-BD spirometry at specific visits as noted in the SOA.
After completing the pre-BD spirometry, participants inhaled four puffs of albuterol/salbutamol (site sourced) metered dose inhaler (approximately 100 μg albuterol/salbutamol base per actuation), with each actuation 1 minute apart. Post-BD spirometry was assessed within 15 to 30 minutes after inhalation of albuterol/salbutamol.

[1] = AECR≥0.5 patients, after 16 weeks
[2] = Week 16, <50% AEC reduction at Week 16
[3] = Week 16, <50% AEC reduction at Week 16 (N = 4), 150 mg BID

CCCN[C@@H]1CCc2nc(N)sc2C1 [Dexpramipexole, (6R)-2-amino-4,5,6,7-tetrahydro-6-(propylamino)benzothiazole]
Post-BD FEV1, absolute increase [1]: 220 mL
Post-BD FEV1, improvement compared to baseline [1]: 16.6%
Post-BD FEF25-75, absolute increase (AECR≥0.5 patients, week 16): 130 mL
Post-BD FEF25-75, average increase compared to baseline (AECR≥0.5 patients, week 16): 26.7%
Post-BD FVC, absolute increase (AECR≥0.5 patients, week 16): 226.7 mL
Post-BD FVC, average increase compared to baseline (AECR≥0.5 patients, week 16): 9.2%
Post-BD Peak Flow, average improvement compared to baseline (AECR≥0.5 patients, week 16): 40.2%
Post-BD FEV1 % change from baseline, Max [2]: 19%
Post-BD FEV1 % change from baseline, Mean ± SD [2]: −0.1± 21.10%
Post-BD FEV1 % change from baseline, Median [2]: 4.8%
Post-BD FEV1 % change from baseline, Min [2]: −29%
Post-BD FEV1 % change from baseline, Q1 [2]: −15%
Post-BD FEV1 % change from baseline, Q3 [2]: 15%
Post-BD FEV1 Observed, Max [2]: 1950 mL
Post-BD FEV1 Observed, Mean ± SD [2]: 1522.5 ± 546.34 mL
Post-BD FEV1 Observed, Median [2]: 1705.0 mL
Post-BD FEV1 Observed, Min [2]: 730 mL
Post-BD FEV1 Observed, Q1 [2]: 1170 mL
Post-BD FEV1 Observed, Q3 [2]: 1875 mL
Post-BD FEV1 change from baseline, Max [2]: 290 mL
Post-BD FEV1 change from baseline, Mean ± SD [2]: 40.0 ± 260.90 mL
Post-BD FEV1 change from baseline, Median [2]: 85.0 mL
Post-BD FEV1 change from baseline, Min [2]: -300 mL
Post-BD FEV1 change from baseline, Q1 [2]: -160 mL
Post-BD FEV1 change from baseline, Q3 [2]: 240 mL
Post bronchodilator Forced Expiratory Flow 25-75% (FEF25-75), % CFB (Percent change from baseline), Max [3]: 54%
Post bronchodilator Forced Expiratory Flow 25-75% (FEF25-75), % CFB (Percent change from baseline), Mean ± SD [3]: 9.7 ± 40.69%
Post bronchodilator Forced Expiratory Flow 25-75% (FEF25-75), % CFB (Percent change from baseline), Median [3]: 7.3%
Post bronchodilator Forced Expiratory Flow 25-75% (FEF25-75), % CFB (Percent change from baseline), Min [3]: −29%
Post bronchodilator Forced Expiratory Flow 25-75% (FEF25-75), % CFB (Percent change from baseline), Q1 [3]: −25%
Post bronchodilator Forced Expiratory Flow 25-75% (FEF25-75), % CFB (Percent change from baseline), Q3 [3]: 44%
Post bronchodilator Forced Expiratory Flow 25-75% (FEF25-75), CFB (Change from baseline), Max [3]: 290 mL/s
Post bronchodilator Forced Expiratory Flow 25-75% (FEF25-75), CFB (Change from baseline), Mean ± SD [3]: 90.0 ± 225.24 mL/s
Post bronchodilator Forced Expiratory Flow 25-75% (FEF25-75), CFB (Change from baseline), Median [3]: 90.0 mL/s
Post bronchodilator Forced Expiratory Flow 25-75% (FEF25-75), CFB (Change from baseline), Min [3]: -110 mL/s
Post bronchodilator Forced Expiratory Flow 25-75% (FEF25-75), CFB (Change from baseline), Q1 [3]: -105 mL/s
Post bronchodilator Forced Expiratory Flow 25-75% (FEF25-75), CFB (Change from baseline), Q3 [3]: 285 mL/s
Post bronchodilator Forced Expiratory Flow 25-75% (FEF25-75), Observed, Max [3]: 1090 mL/s
Post bronchodilator Forced Expiratory Flow 25-75% (FEF25-75), Observed, Mean ± SD [3]: 650.0 ± 382.19 mL/s
Post bronchodilator Forced Expiratory Flow 25-75% (FEF25-75), Observed, Median [3]: 635.0 mL/s
Post bronchodilator Forced Expiratory Flow 25-75% (FEF25-75), Observed, Min [3]: 240 mL/s
Post bronchodilator Forced Expiratory Flow 25-75% (FEF25-75), Observed, Q1 [3]: 340 mL/s
Post bronchodilator Forced Expiratory Flow 25-75% (FEF25-75), Observed, Q3 [3]: 960 mL/s
Post bronchodilator Forced Vital Capacity (FVC), % CFB (Percent change from baseline), Max [3]: 18%
Post bronchodilator Forced Vital Capacity (FVC), % CFB (Percent change from baseline), Mean ± SD [3]: 3.0 ± 14.06%
Post bronchodilator Forced Vital Capacity (FVC), % CFB (Percent change from baseline), Median [3]: 4.6%
Post bronchodilator Forced Vital Capacity (FVC), % CFB (Percent change from baseline), Min [3]: −16%
Post bronchodilator Forced Vital Capacity (FVC), % CFB (Percent change from baseline), Q1 [3]: −6%
Post bronchodilator Forced Vital Capacity (FVC), % CFB (Percent change from baseline), Q3 [3]: 12%
Post bronchodilator Forced Vital Capacity (FVC), CFB (Change from baseline), Max [3]: 450 mL
Post bronchodilator Forced Vital Capacity (FVC), CFB (Change from baseline), Mean ± SD [3]: 70.0 ± 388.16 mL
Post bronchodilator Forced Vital Capacity (FVC), CFB (Change from baseline), Median [3]: 150.0 mL
Post bronchodilator Forced Vital Capacity (FVC), CFB (Change from baseline), Min [3]: -470 mL
Post bronchodilator Forced Vital Capacity (FVC), CFB (Change from baseline), Q1 [3]: -180 mL
Post bronchodilator Forced Vital Capacity (FVC), CFB (Change from baseline), Q3 [3]: 320 mL
Post bronchodilator Forced Vital Capacity (FVC), Observed, Max [3]: 3460 mL
Post bronchodilator Forced Vital Capacity (FVC), Observed, Mean ± SD [3]: 3082.5 ± 447.84 mL
Post bronchodilator Forced Vital Capacity (FVC), Observed, Median [3]: 3165.0 mL
Post bronchodilator Forced Vital Capacity (FVC), Observed, Min [3]: 2540 mL
Post bronchodilator Forced Vital Capacity (FVC), Observed, Q1 [3]: 2715 mL
Post bronchodilator Forced Vital Capacity (FVC), Observed, Q3 [3]: 3450 mL
Post bronchodilator Peak Flow, % CFB (Percent change from baseline), Max [3]: 42%
Post bronchodilator Peak Flow, % CFB (Percent change from baseline), Mean ± SD [3]: 16.9 ± 28.64%
Post bronchodilator Peak Flow, % CFB (Percent change from baseline), Median [3]: 18.1%
Post bronchodilator Peak Flow, % CFB (Percent change from baseline), Min [3]: −10%
Post bronchodilator Peak Flow, % CFB (Percent change from baseline), Q1 [3]: −8%
Post bronchodilator Peak Flow, % CFB (Percent change from baseline), Q3 [3]: 42%
Post bronchodilator Peak Flow, CFB (Change from baseline), Max [3]: 150 L/min
Post bronchodilator Peak Flow, CFB (Change from baseline), Mean ± SD [3]: 51.5 ± 88.04 L/min
Post bronchodilator Peak Flow, CFB (Change from baseline), Median [3]: 46.0 L/min
Post bronchodilator Peak Flow, CFB (Change from baseline), Min [3]: -36 L/min
Post bronchodilator Peak Flow, CFB (Change from baseline), Q1 [3]: -22 L/min
Post bronchodilator Peak Flow, CFB (Change from baseline), Q3 [3]: 125 L/min
Post bronchodilator Peak Flow, Observed, Max [3]: 509 L/min
Post bronchodilator Peak Flow, Observed, Mean ± SD [3]: 326.0 ± 148.82 L/min
